Patent publication US20260263563A1, “Method of Treatment of a Thoracolumbar Deformity in a Human Subject with Achondroplasia” (Ascendis Pharma Growth Disorders A/S, priority 2023, published 2026)
Like-named read-outs stand apart in the source and are kept apart here.

Tests used:
[1] = tested on: prepubertal children with achondroplasia
Experimental: SF-10™ Health Survey for Children is a 10-item parent-completed survey that covers a wide range of domains affecting a child's functional health and well-being (QualityMetric.com), with 5 items primarily related to physical health (PhS), and 5 items primarily related to psyhocosial health (PsS).
The survey was conducted at the following time points; baseline and week 52.
SF-10 assesses, inter alia, physical health (PhS). 5 items of the SF-10 were selected for the assessment of physical health parameters as follows: • Limited in things that take some energy • Limited in bending, lifting, stooping • Limited in kind of schoolwork/activities due to physical health • Subjects health in general • How much bodily pain or discomfort
For each response provided by a subject, a value is assigned and used to calculate the overall physical summary score in accordance with established guidelines (See The SF-10 Health Survey for Children User's Guide by QualityMetric). For reference, in accordance with the User's Guide, the SF-10 scale scores were centered so that a score of 50 corresponds to an average score in a 2006 sample (a combination of general population and supplemental disability and chronic condition samples).

[2] = tested on: healthy adult male subjects
[3] = Experimental: A population PK model was used to characterize the sparse PK data.
Blood samples for determination of CNP-38 were acidified immediately after collection, using citrate acid buffer, to stabilize the prodrug in the sample thereby avoiding further liberation of CNP-38 from the prodrug. CNP-38 was determined in plasma (heparin) following protein precipitation and solid phase extraction and analyzed using liquid chromatography and tandem mass spectrometry detection. CNP-38 (38 amino acid peptide) was used as reference material and CNP-38 labelled with deuterium (D30-CNP-38) as internal standard (IS). Positive ions were monitored in multiple-reaction monitoring mode. The quantification was performed using the peak area ratios of analyte versus IS. The calibration curve fitting was done by 1/concentration-weighted linear regression.
During the trial, sparse blood samples were collected at different time points in the dosing interval, and the concentration of free CNP-38 was determined using the methodology described in example 6.
The values are provided as pmol/L CNP-38. […] The lower value in the range is the lowest free CNP-38 concentration, also referred to as the trough level or trough concentration. The number of subjects contributing with observations at the specified time interval are: 4, 8, 10 and 6 for the 6, 20, 50 and 100 μg/kg dose groups, respectively.

[4] = tested on: prepubertal children with achondroplasia; conditions: for Overall Scoliosis Incidence, Baseline: baseline (prior to treatment)
Experimental: X-rays (radiographs) were taken from subjects in the placebo group and cohort 4 in the Phase 2 Study trials, including those at the thoracolumbar spine (lateral and anterior-posterior/posterior-anterior (AP/PA)) and lower extremity (AP). The lateral X-rays (taken from the placebo group and the 100 μg/kg (cohort 4 group) at baseline and after 52 weeks of treatment were analyzed.
Methodology: From the spine radiographs, aspects related to spinal stenosis, spinal curvature, and spinal height were measured. To assess the size of the spinal canal in the lumbar region (L1-L5), which is smaller in ACH, interpedicular distance (IPD) and pedicle width (PW) are measured on the anterior-posterior/posterior-anterior (AP/PA) and lateral radiographs, respectively. At each level of the lumbar spine, IPD is measured as the distance between the most medial aspects of the pedicles of the spinal canal, and PW is measured from the posterior vertebral body line to the posterior laminar line. Scoliosis is assessed by measuring Cobb angles in the proximal thoracic, main thoracic, and lumbar regions of the AP/PA spine radiograph. On the lateral spine radiograph, Cobb angles for kyphosis are assessed in the thoracic (TK) and thoracolumbar (TLK) region and for lordosis in the lumbar region (LL). Spinal heights (both thoracic and total) are measured on the AP/PA spine radiograph. • Scoliosis: Cobb angles of the proximal thoracic (T1-T3), main thoracic (T2-L1), and lumbar (L1-L5) regions • Kyphosis: Cobb angles of the thoracic (T5-T12, TK) and thoracolumbar (T10-L2, TLK) regions • Lordosis: Cobb angles of the lumbar (L1-L5, LL) region • Thoracic spine height (T1 to T12) and Total spine height (T1 to S1)
As many of these parameters vary naturally during growth, published normative data from both healthy and ACH populations are being utilized to calculate Z-scores where possible. For spine kyphosis, data from Lee et al., 2012 (Journal of spinal disorders & techniques. 2012; 25(8):E259-63) and Abousamra et al. 2019 (Spine Deform. 2019 January; 7(1):163-170) were used to calculate Z-scores based on data from healthy and ACH children.
A decrease of the (Posterior Height/Middle Width) ratio is indicative of a normalization of vertebral morphology.

[5] = 50 and 100 μg/kg vs placebo, 52 weeks
[6] = cohorts 3 and 4 vs placebo, 52 weeks, initial data
[7] = single patient, after 52 weeks treatment
[8] = single patient, after 52 weeks treatment (100 μg/kg/week)
[9] = single patient, week 52, 100 μg/kg/week

Navepegritide [Compound (1)]
SF-10 Physical Summary Score, Wk 52 (S.E) ([1]; 100 μg/kg (SC) weekly, week 52): 40.70 (6.87) | SF-10 Physical Summary Score, Change from Baseline ([1]; 100 μg/kg (SC) weekly, week 52, placebo −3.04 (3.82)): +5.91 (1.65) | SF-10 PsS score ([1]; 100 μg/kg weekly, after 52 weeks of treatment): improvement trend | SF-10 PhS score compared with baseline ([1]; 100 μg/kg weekly, week 52): marked increase | SF-10 Physical Summary, treated versus placebo ([1]; 100 μg/kg/week for one year (n=19) vs placebo (n=15), p=0.002, ages 5 years and older): statistically significant improved outcome | ACEM Emotional Well-being, treated versus placebo ([1]; 100 μg/kg/week for one year vs placebo, p=0.045): statistically significant improved outcome | ACEM Daily Living Function, treated versus placebo ([1]; 100 μg/kg/week for one year vs placebo, p=0.047): statistically significant improved outcome | blood pressure, heart rate, or safety laboratory test results ([2]; all investigated doses): No clinically relevant dose-dependent trends were observed | mean apparent t1/2 of free CNP-38 ([2]; single s.c. dose up to 150 μg CNP/kg, dose-independent): 120 h | immunogenic response ([2]; single s.c. doses): no evidence of immunogenic response | local tolerability findings ([2]; single s.c. doses): predominantly mild to moderate redness | most commonly reported (≥10% of subjects) treatment-emergent adverse events ([2]; single s.c. doses): headache, contact dermatitis, postural dizziness, (orthostatic) tachycardia, dizziness, and orthostatic hypotension | serious adverse effects or deaths ([2]; single s.c. doses): no serious adverse effects (AEs) or deaths reported | severity of most TEAEs ([2]; single s.c. doses): mild or moderate | tolerability ([2]; single s.c. doses up to 150 μg CNP/kg, all investigated doses): generally well tolerated | Estimated half-life for free CNP ([3]; 6 μg/kg/week): 101 h | Free CNP-38, Mean (SD) ([3]; 6 μg/kg/week, 6.5 to 7.5 days after last dose): 1.7 (0.2) pmol/L | Free CNP-38, Median (range) ([3]; 6 μg/kg/week, samples 6.5 to 7.5 days after last dose (trough), 4 subjects): 1.7 (1.4-1.9) pmol/L | Estimated half-life for free CNP ([3]; 20 μg/kg/week): 106 h | Free CNP-38, Mean (SD) ([3]; 20 μg/kg/week, 6.5 to 7.5 days after last dose): 2.9 (9.7) pmol/L | Free CNP-38, Median (range) ([3]; 20 μg/kg/week, 6.5 to 7.5 days after last dose, 8 subjects): 2.9 (1.6-4.2) pmol/L | Estimated half-life for free CNP ([3]; 50 μg/kg/week): 108 h | Free CNP-38, Mean (SD) ([3]; 50 μg/kg/week, 6.5 to 7.5 days after last dose): 7.2 (2.5) pmol/L | Free CNP-38, Median (range) ([3]; 50 μg/kg/week, 6.5 to 7.5 days after last dose, 10 subjects): 6.5 (4-16.9) pmol/L | Estimated half-life for free CNP ([3]; 100 μg/kg/week): 110 h | Free CNP-38, Mean (SD) ([3]; 100 μg/kg/week, 6.5 to 7.5 days after last dose): 14 (4.2) pmol/L | Free CNP-38, Median (range) ([3]; 100 μg/kg/week, 6.5 to 7.5 days after last dose, 6 subjects): 13.8 (9.4-23) pmol/L | Free CNP-38, Median (range) ([3]; 150 μg/kg/week, simulated with a population PK model): 22.3 (19.7-25) pmol/L | exposure across dosing cohorts ([3]; 6, 20, 50 and 100 μg/kg): dose related increase in exposure | Predicted median free CNP Cmax, Median (9-95th percentile) ([3]; BW 10 kg, 6 μg/kg/week): 2.9 (1.6-5.0) pg/ml | Predicted median free CNP Cmax, Median (9-95th percentile) ([3]; BW 10 kg, 20 μg/kg/week): 10.4 (5.8-18.9) pg/ml | Predicted median free CNP Cmax, Median (9-95th percentile) ([3]; BW 10 kg, 50 μg/kg/week): 26.5 (15.2-48.1) pg/ml | Predicted median free CNP Cmax, Median (9-95th percentile) ([3]; BW 10 kg, 100 μg/kg/week): 53.1 (30.9-96.4) pg/ml | Predicted median free CNP Cmax, Median (9-95th percentile) ([3]; BW 35 kg, 6 μg/kg/week): 1.8 (1.1-3.3) pg/ml | Predicted median free CNP Cmax, Median (9-95th percentile) ([3]; BW 35 kg, 20 μg/kg/week): 6.6 (3.8-12.6) pg/ml | Predicted median free CNP Cmax, Median (9-95th percentile) ([3]; BW 35 kg, 50 μg/kg/week): 18.3 (10.3-31.5) pg/ml | Predicted median free CNP Cmax, Median (9-95th percentile) ([3]; BW 35 kg, 100 μg/kg/week): 36.6 (20.2-65.9) pg/ml | Preliminary mean free CNP level ([3]; Cohort 1, 6 μg/kg, WEEK 0, 0.96 days post 1st dose): 1.86 pmol/L | Preliminary mean free CNP level ([3]; Cohort 1, 6 μg/kg, WEEK 4, 27.98 days, all observations below LLOQ, set to LLOQ ([…])): 1.38 pmol/L | Preliminary mean free CNP level ([3]; Cohort 1, 6 μg/kg, WEEK 8, 55.97 days): 1.68 pmol/L | Preliminary mean free CNP level ([3]; Cohort 1, 6 μg/kg, WEEK 12, 79.02 days): 1.85 pmol/L | Preliminary mean free CNP level ([3]; Cohort 1, 6 μg/kg, WEEK 26, 181.99 days): 1.48 pmol/L | Preliminary mean free CNP level ([3]; Cohort 1, 6 μg/kg, WEEK 39, 271.94 days): 2.02 pmol/L | Preliminary mean free CNP level ([3]; Cohort 1, 6 μg/kg, WEEK 52, 363.90 days): 1.58 pmol/L | Preliminary mean free CNP level ([3]; Cohort 2, 20 μg/kg, WEEK 0, 1.01 days): 3.49 pmol/L | Preliminary mean free CNP level ([3]; Cohort 2, 20 μg/kg, WEEK 4, 27.94 days): 3.27 pmol/L | Preliminary mean free CNP level ([3]; Cohort 2, 20 μg/kg, WEEK 8, 56.27 days): 3.79 pmol/L | Preliminary mean free CNP level ([3]; Cohort 2, 20 μg/kg, WEEK 12, 84.00 days): 3.84 pmol/L | Preliminary mean free CNP level ([3]; Cohort 2, 20 μg/kg, WEEK 26, 182.00 days): 2.77 pmol/L | Preliminary mean free CNP level ([3]; Cohort 2, 20 μg/kg, WEEK 39, 273.47 days): 5.19 pmol/L | Preliminary mean free CNP level ([3]; Cohort 3, 50 μg/kg, WEEK 0, 1.00 days): 10.58 pmol/L | Preliminary mean free CNP level ([3]; Cohort 3, 50 μg/kg, WEEK 4, 27.99 days): 7.29 pmol/L | Preliminary mean free CNP level ([3]; Cohort 3, 50 μg/kg, WEEK 8, 56.00 days): 9.24 pmol/L | Preliminary mean free CNP level ([3]; Cohort 3, 50 μg/kg, WEEK 12, 83.91 days): 7.62 pmol/L | Preliminary mean free CNP level ([3]; Cohort 4, 100 μg/kg, WEEK 0, 0.99 days): 15.29 pmol/L | half-life for free CNP ([3]; population PK model, weekly s.c. dosing): ~ 110 hours | exposure to free CNP ([3]; weekly s.c. dosing): Sustained exposure to free CNP was observed | TLK Z-score (Healthy), Week 52 Change from Baseline (Mean ± SD) ([4]; 100 μg/kg/week, n 5, p < 0.05 vs placebo (ANCOVA), placebo −0.19 (0.318)): −1.004 (0.614) | TLK Z-score (ACH), Week 52 Change from Baseline (Mean ± SD) ([4]; 100 μg/kg/week, n 6, p < 0.05 vs placebo (ANCOVA), placebo −0.052 (0.242)): −0.416 (0.412) | TLK, Week 52 Change from Baseline (Mean ± SD) ([4]; 100 μg/kg/week, n 6, placebo −[…] (2.61)): −7.17 (4.94) degrees | interpedicular distance (IPD) [4, 5]: no clear effect | pedicular width (PW) [4, 5]: trend for patients on treatment to have an increase | Overall Scoliosis Incidence, After 52 weeks of Treatment ([4]; Cohort 3, 50 μg/kg): 0 out of 9 | Overall Scoliosis Incidence, Baseline ([4]; Cohort 3, 50 μg/kg): 3 out of 9 | Overall Scoliosis Incidence, After 52 weeks of Treatment ([4]; Cohort 4, 100 μg/kg): 1 out of 9 | Overall Scoliosis Incidence, Baseline ([4]; Cohort 4, 100 μg/kg): 3 out of 9 | thoracolumbar kyphosis ([4]; cohort 4 after 52 weeks of treatment): statistically significant reduction | kyphosis Cobb Angle [4, 6]: trend for a dose dependent reduction | scoliosis main thoracic Cobb Angle [4, 6]: trend for a dose dependent reduction | lumbar lordosis ([4]; phase 2 and open label extension trial): slight trend for an increase | Patient Angle, thoracic kyphosis (TK) ([4]; single patient one, baseline): 11.6 degrees | L1 vertebra LW, change from baseline [4, 7]: Δ4.1 mm | L1 vertebra MH, change from baseline [4, 7]: Δ1.4 mm | L1 vertebra MW, change from baseline [4, 7]: Δ5.9 mm | L1 vertebra PH, change from baseline [4, 7]: Δ1.5 mm | L1 vertebra LW (Lower Width) [4, 8]: 22.9 mm | L1 vertebra MH (Middle Height) [4, 8]: 15.0 mm | L1 vertebra MW (Middle Width) [4, 8]: 14.6 mm | L1 vertebra PH (Posterior height) [4, 8]: 15.8 mm | L1 vertebra PH/MW [4, 8]: 108 mm | L1 vertebra PH/MW, change from baseline ([4]; single patient, after 52 weeks treatment, [~80@T12/12]): Δ−56 [~80@T12/12] mm | L1 vertebra LW (Lower Width) ([4]; single patient, baseline): 18.8 mm | L1 vertebra MH (Middle Height) ([4]; single patient, baseline): 13.6 mm | L1 vertebra MW (Middle Width) ([4]; single patient, baseline): 8.7 mm | L1 vertebra PH (Posterior height) ([4]; single patient, baseline): 14.3 mm | L1 vertebra PH/MW ([4]; single patient, baseline): 164 mm | Patient Angle, lumbar lordosis (LL) ([4]; single patient, baseline): 58.3 degrees | Patient Angle, thoraco-lumbar kyphosis (TLK) ([4]; single patient, baseline): 24.0 degrees | apical wedging and shape of L1 vertebra on radiographs ([4]; single patient, baseline vs 52 weeks of treatment): noted decrease in apical wedging and normalization of the L1 vertebra | Patient Z-score TK3 ([4]; single patient, baseline, reference population 3 (Abousamra 2019) 20.0 ± 12.5): −0.7 | Patient Z-score TLK3 ([4]; single patient, baseline, reference population 3, 18.5 ± 13.2): 0.4 | Patient Z-score LL3 ([4]; single patient, baseline, reference population 3, 66.7 ± 17.5): −0.5 | Patient Z-score TLK2 ([4]; single patient, baseline, reference population 5.0 ± 7.2): 2.6 | Patient Z-score TK2 ([4]; single patient, baseline, reference population 31.6 ± 9.2): −2.2 | Patient Z-score LL2 ([4]; single patient, baseline, reference population 44.4 ± 9.4): 1.5 | Patient Angle, lumbar lordosis (LL) [4, 9]: 60.2 degrees | Patient Angle, thoracic kyphosis (TK) [4, 9]: 12.6 degrees | Patient Angle, thoraco-lumbar kyphosis (TLK) [4, 9]: 9.1 degrees | Patient Z-score TK2 ([4]; single patient, week 52, 100 μg/kg/week, reference 31.6 ± 9.2): −2.1 | Patient Z-score TLK2 ([4]; single patient, week 52, reference 5 ± 7.2): 0.6 | Patient Z-score LL2 ([4]; single patient, week 52, reference 44.4 ± 9.4): 1.7 | Patient Z-score TLK3 ([4]; single patient, week 52, reference population 3, 18.5 ± 12.0): −0.6 | Patient Z-score TK3 ([4]; single patient, week 52, reference population 3, 19.7 ± 13.2): −0.5 | Patient Z-score LL3 ([4]; single patient, week 52, reference population 3, 66.0 ± 15.5): −0.4
